# Structures can show the parent of a compound that is named as a salt.
# Assay: Humidifying Nilotinib.3HCl: water content measured at regular intervals in a closed glass container with saturated potassium chloride solution
# Assay type: physicochemical
# Details: for water content (M/C) After 72 Hrs: after 72 Hrs in closed container over saturated potassium chloride solution; for water content (M/C) After 72 Hrs / water content (M/C) After 96 Hrs / M/C Initial (water content): tri hydrochloride; for water content (M/C) After 96 Hrs: after 96 Hrs in closed container over saturated potassium chloride solution; for M/C Initial (water content): before humidifying
# Procedure: Weight 4.0 gms (having HPLC purity is 90%) Crude Nilotinib Tri hydrochloride in dry Petri dish and placed in to closed glass container containing (saturated Potassium chloride solution) at 20 to 25 temperature, the water content of crude Nilotinib was measured by regular interval.
# Weight 4.0 gms (having HPLC purity is 97.91%) Pure Nilotinib Tri hydrochloride in dry Petri dish and placed in to closed glass container containing (saturated Potassium chloride solution) at 20 to 25 temperature, the water content of Pure Nilotinib was measured by regular interval.
water content (M/C) After 72 Hrs (20 to 25 temperature) [%],water content (M/C) After 96 Hrs (20 to 25 temperature) [%],M/C Initial (water content) [%],"water content (M/C) After 24 Hrs (after 24 Hrs in closed container over saturated potassium chloride solution, 20 to 25 temperature) [%]","water content (M/C) After 48 Hrs (after 48 Hrs in closed container over saturated potassium chloride solution, 20 to 25 temperature) [%]","water content (M/C) After 120 Hrs (after 120 Hrs in closed container over saturated potassium chloride solution, 20 to 25 temperature) [%]",Compound
14.90,14.41,4.55,–,–,–,"Cc1cn(-c2cc(NC(=O)c3ccc(C)c(Nc4nccc(-c5cccnc5)n4)c3)cc(C(F)(F)F)c2)cn1 [Nilotinib.3HCl (Pure), 3-(4-(pyridin-3-yl)pyrimidin-2-ylamino)-N-(3-(trifluoromethyl)-5-(4-methyl-1H-imidazol-1-yl)phenyl)-4-methylbenzamide tri hydrochloride]"
16.40,16.36,4.31,16.33,16.89,16.53,"Cc1cn(-c2cc(NC(=O)c3ccc(C)c(Nc4nccc(-c5cccnc5)n4)c3)cc(C(F)(F)F)c2)cn1 [Nilotinib.3HCl (crude), 3-(4-(pyridin-3-yl)pyrimidin-2-ylamino)-N-(3-(trifluoromethyl)-5-(4-methyl-1H-imidazol-1-yl)phenyl)-4-methylbenzamide tri hydrochloride]"
